Laboratory results reported in patent EP4592286A1, “MACROCYCLIC NITROGEN-CONTAINING CROWN ETHER COMPOUND AND USE THEREOF AS PROTEIN KINASE INHIBITOR” (Artivila Biopharma, priority 2022, dated 2024).
In brackets after ≈: the same amount, converted by molar mass.

Key:
JAK1 = JAK1 (Homo sapiens, UniProt P23458); test: experiment of inhibiting kinase activity (Caliper mobility shift assay), JAK1; format: biochemical; conditions: read-out: inhibition rate JAK1; for inhibition at 0.01 µM: at 10 nM
Summary of the method: (§1)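 Mobility-shift readout of substrate conversion; % inhibition normalized to uninhibited-enzyme wells (0%) and buffer-only background wells. Dosing: single points at 10 and 100 nM, or 3-fold series from 10 µM (10 conc.), replicates. Kinase + compound 10 min RT, then ATP/substrate.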

JAK2 = JAK2 (Homo sapiens, UniProt O60674); test: experiment of inhibiting kinase activity (Caliper mobility shift assay), JAK2; format: biochemical; conditions: read-out: inhibition rate JAK2; for inhibition at 0.01 µM: at 10 nM
JAK2, sequence (O60674 whole entry): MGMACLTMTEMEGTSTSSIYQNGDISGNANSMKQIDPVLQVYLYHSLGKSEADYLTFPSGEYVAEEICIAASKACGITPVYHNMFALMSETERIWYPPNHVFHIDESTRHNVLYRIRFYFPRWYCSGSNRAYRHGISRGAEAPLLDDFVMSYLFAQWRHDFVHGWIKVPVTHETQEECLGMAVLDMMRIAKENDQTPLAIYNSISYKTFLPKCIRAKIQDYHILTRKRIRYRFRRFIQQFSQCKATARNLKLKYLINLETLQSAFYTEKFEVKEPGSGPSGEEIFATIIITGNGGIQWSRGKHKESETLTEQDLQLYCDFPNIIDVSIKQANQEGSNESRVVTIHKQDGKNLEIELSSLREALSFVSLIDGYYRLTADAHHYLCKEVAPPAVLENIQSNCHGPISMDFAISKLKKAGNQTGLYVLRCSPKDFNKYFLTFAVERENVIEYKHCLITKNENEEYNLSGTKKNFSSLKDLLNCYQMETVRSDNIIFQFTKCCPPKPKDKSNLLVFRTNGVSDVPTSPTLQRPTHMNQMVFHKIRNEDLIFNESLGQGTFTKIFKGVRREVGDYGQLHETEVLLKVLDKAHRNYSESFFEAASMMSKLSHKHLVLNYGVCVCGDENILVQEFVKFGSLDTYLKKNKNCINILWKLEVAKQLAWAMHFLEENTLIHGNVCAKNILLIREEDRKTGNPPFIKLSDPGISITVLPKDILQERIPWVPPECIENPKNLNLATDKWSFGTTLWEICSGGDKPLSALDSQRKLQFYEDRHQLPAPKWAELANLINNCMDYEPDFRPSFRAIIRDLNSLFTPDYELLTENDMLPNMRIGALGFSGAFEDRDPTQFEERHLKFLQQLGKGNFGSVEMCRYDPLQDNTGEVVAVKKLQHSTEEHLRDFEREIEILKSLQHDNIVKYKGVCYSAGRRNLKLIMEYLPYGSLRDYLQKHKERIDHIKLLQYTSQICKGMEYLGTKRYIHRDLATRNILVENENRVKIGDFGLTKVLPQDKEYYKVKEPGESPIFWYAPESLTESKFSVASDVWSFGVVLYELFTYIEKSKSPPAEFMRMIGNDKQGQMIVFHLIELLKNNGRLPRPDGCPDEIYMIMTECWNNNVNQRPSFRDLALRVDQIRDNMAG
Summary of the method: as §1

JAK3 = target: T1, JAK3 (Homo sapiens, UniProt P52333); test: experiment of inhibiting kinase activity (Caliper mobility shift assay), JAK3; format: biochemical; conditions: at 100 nM; read-out: inhibition rate JAK3
T1 sequence (P52333 1-1124): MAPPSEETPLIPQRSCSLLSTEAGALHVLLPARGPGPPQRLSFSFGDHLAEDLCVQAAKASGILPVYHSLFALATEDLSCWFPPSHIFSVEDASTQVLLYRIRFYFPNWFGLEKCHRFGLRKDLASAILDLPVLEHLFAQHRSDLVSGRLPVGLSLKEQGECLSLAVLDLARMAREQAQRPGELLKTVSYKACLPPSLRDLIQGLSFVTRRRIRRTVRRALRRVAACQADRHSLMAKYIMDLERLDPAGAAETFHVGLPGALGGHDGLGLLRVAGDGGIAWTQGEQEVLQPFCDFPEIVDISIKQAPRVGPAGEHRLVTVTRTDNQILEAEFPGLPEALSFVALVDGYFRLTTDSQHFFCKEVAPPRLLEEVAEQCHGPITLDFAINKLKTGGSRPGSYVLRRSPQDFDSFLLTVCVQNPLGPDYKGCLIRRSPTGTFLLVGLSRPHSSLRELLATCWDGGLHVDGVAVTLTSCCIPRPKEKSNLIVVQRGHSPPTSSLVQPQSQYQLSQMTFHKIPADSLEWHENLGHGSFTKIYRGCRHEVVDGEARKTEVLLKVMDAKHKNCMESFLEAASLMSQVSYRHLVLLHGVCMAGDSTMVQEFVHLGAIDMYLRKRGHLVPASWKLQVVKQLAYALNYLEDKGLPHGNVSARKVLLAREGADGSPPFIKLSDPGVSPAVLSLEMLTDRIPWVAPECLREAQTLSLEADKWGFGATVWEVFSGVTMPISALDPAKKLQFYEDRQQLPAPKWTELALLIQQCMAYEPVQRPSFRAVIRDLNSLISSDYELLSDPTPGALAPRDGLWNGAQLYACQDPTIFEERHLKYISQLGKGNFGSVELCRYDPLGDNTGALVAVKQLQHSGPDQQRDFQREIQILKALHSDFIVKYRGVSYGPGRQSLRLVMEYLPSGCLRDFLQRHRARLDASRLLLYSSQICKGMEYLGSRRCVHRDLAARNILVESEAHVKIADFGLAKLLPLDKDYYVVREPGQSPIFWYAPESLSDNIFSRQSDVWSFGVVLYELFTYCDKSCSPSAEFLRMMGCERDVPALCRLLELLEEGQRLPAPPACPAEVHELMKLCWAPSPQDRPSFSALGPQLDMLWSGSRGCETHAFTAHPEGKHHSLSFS
Summary of the method: as §1

TYK2 = TYK2 (Homo sapiens, UniProt P29597); test: experiment of inhibiting kinase activity, TYK2; format: biochemical; conditions: read-out: inhibition rate TYK2; for inhibition at 0.01 µM: at 10 nM
TYK2, sequence (P29597 whole entry): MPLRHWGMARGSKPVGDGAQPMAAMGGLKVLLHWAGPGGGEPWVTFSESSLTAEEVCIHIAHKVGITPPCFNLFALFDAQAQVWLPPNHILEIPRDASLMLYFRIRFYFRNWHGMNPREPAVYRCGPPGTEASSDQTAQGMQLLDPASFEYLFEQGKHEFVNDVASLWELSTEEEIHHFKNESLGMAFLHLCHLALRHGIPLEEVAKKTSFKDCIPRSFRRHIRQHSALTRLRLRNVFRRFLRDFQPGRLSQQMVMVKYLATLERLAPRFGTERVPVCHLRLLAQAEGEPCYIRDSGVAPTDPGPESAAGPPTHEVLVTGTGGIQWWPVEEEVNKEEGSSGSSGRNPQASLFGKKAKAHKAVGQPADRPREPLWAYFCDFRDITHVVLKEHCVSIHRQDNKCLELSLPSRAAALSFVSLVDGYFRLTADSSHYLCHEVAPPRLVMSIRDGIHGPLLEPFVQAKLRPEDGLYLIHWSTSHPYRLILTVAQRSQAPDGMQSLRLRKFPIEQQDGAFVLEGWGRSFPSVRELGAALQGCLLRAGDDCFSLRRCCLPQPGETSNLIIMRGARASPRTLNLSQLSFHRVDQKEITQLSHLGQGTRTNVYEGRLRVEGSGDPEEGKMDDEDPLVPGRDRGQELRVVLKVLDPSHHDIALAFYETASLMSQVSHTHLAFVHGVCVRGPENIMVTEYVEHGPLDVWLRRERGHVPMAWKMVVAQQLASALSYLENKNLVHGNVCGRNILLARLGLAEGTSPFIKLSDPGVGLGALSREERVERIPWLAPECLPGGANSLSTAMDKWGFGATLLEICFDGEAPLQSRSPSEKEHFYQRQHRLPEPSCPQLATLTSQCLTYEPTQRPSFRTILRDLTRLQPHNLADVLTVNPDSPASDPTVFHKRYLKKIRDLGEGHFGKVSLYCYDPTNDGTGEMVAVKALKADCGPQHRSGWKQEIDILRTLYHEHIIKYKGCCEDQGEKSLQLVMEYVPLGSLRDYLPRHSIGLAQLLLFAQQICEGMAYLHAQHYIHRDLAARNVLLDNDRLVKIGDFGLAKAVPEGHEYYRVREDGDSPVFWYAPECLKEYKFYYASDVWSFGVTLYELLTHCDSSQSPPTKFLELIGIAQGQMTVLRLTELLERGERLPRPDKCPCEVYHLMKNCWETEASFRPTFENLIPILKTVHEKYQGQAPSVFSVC
Procedure: (§2) The inhibition rates of tested compounds on JAK1, JAK2, JAK3, TYK2, CDK7, CDK9, EGFR (T790M) and LRRK2 kinases were measured. The test concentrations of the compounds were 10 nM and 100 nM, and the detection was performed by replicate wells. Alternatively, compounds were 3-fold serial diluted from 10 µM for 10 concentrations in replicate wells.

CDK7 = CDK7 (Homo sapiens, UniProt P50613); test: experiment of inhibiting kinase activity (Caliper mobility shift assay), CDK7; format: biochemical; conditions: at 100 nM; read-out: inhibition rate CDK7
Summary of the method: as §1

CDK9 = CDK9 (Homo sapiens, UniProt P50750); test: experiment of inhibiting kinase activity (Caliper mobility shift assay), CDK9; format: biochemical; conditions: for inhibition at 0.01 µM: at 10 nM; for IC50: kinase activity assay, Table 3
CDK9, sequence (P50750 whole entry): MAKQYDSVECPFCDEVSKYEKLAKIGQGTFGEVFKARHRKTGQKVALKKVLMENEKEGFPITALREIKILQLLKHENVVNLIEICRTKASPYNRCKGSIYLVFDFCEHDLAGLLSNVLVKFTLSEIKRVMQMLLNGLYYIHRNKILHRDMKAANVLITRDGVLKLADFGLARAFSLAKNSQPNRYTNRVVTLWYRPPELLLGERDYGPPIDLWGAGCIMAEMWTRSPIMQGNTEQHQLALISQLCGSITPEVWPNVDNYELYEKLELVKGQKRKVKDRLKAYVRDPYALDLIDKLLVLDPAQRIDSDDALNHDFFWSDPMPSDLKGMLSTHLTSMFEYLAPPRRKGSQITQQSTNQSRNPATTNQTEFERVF
CDK9, sequence (O60563 whole entry partner): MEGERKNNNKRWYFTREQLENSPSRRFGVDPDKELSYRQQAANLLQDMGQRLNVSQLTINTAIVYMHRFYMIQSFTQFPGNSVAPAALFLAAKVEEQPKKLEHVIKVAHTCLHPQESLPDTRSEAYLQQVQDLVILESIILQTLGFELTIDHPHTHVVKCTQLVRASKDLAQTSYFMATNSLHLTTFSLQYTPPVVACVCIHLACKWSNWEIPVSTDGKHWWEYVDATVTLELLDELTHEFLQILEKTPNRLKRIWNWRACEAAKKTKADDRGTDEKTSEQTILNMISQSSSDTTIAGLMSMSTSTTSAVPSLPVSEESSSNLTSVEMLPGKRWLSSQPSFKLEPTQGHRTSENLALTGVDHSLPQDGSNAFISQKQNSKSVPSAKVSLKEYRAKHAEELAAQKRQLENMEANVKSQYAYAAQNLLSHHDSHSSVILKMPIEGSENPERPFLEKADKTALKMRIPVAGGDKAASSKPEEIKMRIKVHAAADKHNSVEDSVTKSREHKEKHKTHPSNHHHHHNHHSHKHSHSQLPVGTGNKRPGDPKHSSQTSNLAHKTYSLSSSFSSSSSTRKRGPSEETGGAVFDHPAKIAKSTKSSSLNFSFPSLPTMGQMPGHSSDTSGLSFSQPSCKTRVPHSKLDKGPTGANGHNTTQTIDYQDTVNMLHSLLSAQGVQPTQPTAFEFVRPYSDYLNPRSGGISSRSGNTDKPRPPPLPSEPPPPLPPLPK
Summary of the method: as §1

LRRK2 = LRRK2 (Homo sapiens, UniProt Q5S007); test: experiment of inhibiting kinase activity, LRRK2; format: biochemical; conditions: for IC50: kinase activity assay, Table 3
Procedure: as §2

MV-4-11 cells = test: CDK9 cell activity test (Cell Titer-GLO cell growth inhibition), MV-4-11; format: cell-based; conditions: Homo sapiens, MV4-11, 72 hours
Procedure: In these experiments, the cell line MV-4-11 was cultured in IMDM culture solution (containing 100 U/mL penicillin and 0.1 g/L streptomycin), the cell line HCC1187 was cultured in RPMI-1640 culture solution (containing 100 U/mL penicillin and 0.1 g/L streptomycin) containing 10% fetal bovine serum, the cell line Mia Paca-2 was cultured in DMEM (containing 100 U/mL penicillin and 0.1 g/L streptomycin) containing 10% fetal bovine serum and 2.5% horse serum, and the cell line A375 was cultured in RPMI-1640 culture solution (containing 100 U/mL penicillin and 0.1 g/L streptomycin) containing 10% fetal bovine serum. All cells were cultured in a saturated humidity incubator with 37 °C and 5% CO2.
When MV-4-11 cells, HCC-1187 cells, Mia Paca-2 cells and A375 cells grew to 80% -90% confleuncy, they were digested with trypsin, resuspended, counted and diluted to a certain cell density with complete medium, and inoculated into 96-well plate at 100 µL/well. With complete medium as background control, they were cultured overnight in a saturated humidity incubator with 37°C and 5% CO2. The compound was diluted to 200-fold of the final concentration using DMSO, 3 µL of DMSO storage solution of the above compound was added to 197 µL of complete medium, 50 µL of compound diluted in medium was added to cells in each well, and cultivated in a saturated humidity incubator with 37°C and 5% CO2 for 72 hours. After 72 hours, the culture plate was placed at room temperature for equilibrium, and 40 µl of Cell Titer-GLO® reagent was added to each well. The cells were lysed by mixing evenly for 2 minutes using a shaker, incubated at room temperature for 60 minutes to stabilize the chemiluminescence signal, and the chemiluminescence was read by PE EnVision microtiter plate reader. The cell growth inhibition rate Inh%=(DMSO well - compound treatment well)/(DMSO well - background well)×100 was calculated, and the cell growth IC50 value was obtained by fitting with GraphPad Prism 5 .

wild-type LRRK2 = target: T2, wild-type LRRK2 (Homo sapiens, UniProt Q5S007); test: detection of phosphorylated S935 in HEK293T overexpressing wild-type LRRK2; format: cell-based; conditions: pS935, HEK293T overexpressing wild-type LRRK2, 1.5 hours
T2 construct: pCMV-flag-WT LRRK2 (full-length); expressed in transfected cells; host or cells: HEK293T
Procedure: (§3) Detection of phosphorylated S935 in HEK293T Overexpressing full-length LRRK2 (G2019S) or wild-type LRRK2
(§4) HEK293T cells was inoculated into a 6-well plate and cultured overnight. The next day, they were transiently transfected with plasmid pcDNA5-FRT/TO-FLAG LRRK2 (G2019S, full-length) or pCMV-flag-WT LRRK2 (full-length) by using Superfect transfection reagent and cultured at 37°C and 5% CO2 for 20-24 hours. The next day, cells were collected, resuspended at a density of 0.48×10^6 cells/ml, and inoculated into a 384-well plate at 50 microliters/well. Compound or DMSO solutions (volume ratio of 0.5%) were added by Tecan, and cultured at 37°C and 5% CO2 for 1.5 hours. After 1.5 hours, the supernatant was discarded, 50 microliters of 8% PFA were added in each well to fix the cells, and the cells were incubated at room temperature for 1 hour. The plate was washed with EL406 plate washer for three times, with 115 microliters of PBST per well, and the culture plate was patted to dryness. The cells were blocked with 50 microliters/well of Licor Odyssey blocking solution (0.1% Tween 20) at room temperature for 1.5 hours. The blocking solution was discarded and the culture plate was patted to dryness. 20 microliters of primary antibody (1:1000(pS935), diluted with Licor Odyssey buffer (0.1% Tween20)) was added into each well, and incubated at 4 °C overnight. The next day, the first antibody was discarded and washing was performed with PBST for five times. 20 microliters of secondary antibody (diluted with Licor Odyssey buffer (0.1% Tween20) at 1:500 and stained with DNA at 1:2000) were added into each well, and incubated at room temperature for 1 hour. The second antibody was discarded, and washing was performed for three times with PBST. The fluorescence intensity was measured by LICOR Odyssey imager Scanner, and the data was analyzed.

LRRK2 (G2019S) = target: T3, LRRK2 (G2019S) (Homo sapiens, UniProt Q5S007, G2019S); test: detection of phosphorylated S935 in HEK293T overexpressing full-length LRRK2 (G2019S); format: cell-based; conditions: pS935, HEK293T overexpressing LRRK2 (G2019S), 1.5 hours
T3 construct: pcDNA5-FRT/TO-FLAG LRRK2 (G2019S, full-length); expressed in transfected cells; host or cells: HEK293T
Procedure: as §3, §4

[1] = measurement of the solubility of compounds in water and diluted hydrochloric acid; format: physicochemical; conditions: thermodynamic from solid
Procedure: Example 117: measurement of the solubility of compounds in water and diluted hydrochloric acid
The compounds were dissolved in acetonitrile (LCMS pure) and prepared into standard samples having the concentration gradient of 1000 µg/mL, 500 µg/mL, 250 µg/mL, 125 µg/mL, 62.5 µg/mL, and 31.25 µg/mL.
(§5) About 1.0 mg of the powder of the compound to be tested was weighed and added to 0.3 mL of ultrapure water (pH-6), the resulting mixture was shaked thoroughly at room temperature overnight and centrifuged, and the supernatant was taken and diluted 10 times with acetonitrile. The sample was analyzed after mixing evenly.
as §5, with “153.8 µL of 6 M HCl was pipetted, 20 mL of water was added, and mixed evenly to prepare diluted hydrochloric acid solution A (pH-1.5). About” for “About”, “diluted hydrochloric acid solution A,” for “ultrapure water (pH-6),”, “for 1 hour” for “overnight”
The standard sample and the sample to be tested were analyzed by Shimadzu LCMS-2020, where chromatographic column was Skim-psck GIST 5 µm C18 2.1*[…]; mobile phase A was water and mobile phase B was methanol; and flow rate was 0.3 mL/min. The gradient of B was as the following: 0 min: 10%; 0-1.0 min: 10%; 1.0-2.5 min: 95%; 3.0-4.0 min: 95%; 4.0-4.1 min: 10%; 4.1-6.0 min: 10%.
The relationship between the concentration and peak area of the standard sample was ploted into a standard curve, and the concentration of the sample to be tested was calibrated using this standard curve. Compound solubility = concentration of the sample to be tested × 10 [formula]

JAK1, sequence (P23458 whole entry): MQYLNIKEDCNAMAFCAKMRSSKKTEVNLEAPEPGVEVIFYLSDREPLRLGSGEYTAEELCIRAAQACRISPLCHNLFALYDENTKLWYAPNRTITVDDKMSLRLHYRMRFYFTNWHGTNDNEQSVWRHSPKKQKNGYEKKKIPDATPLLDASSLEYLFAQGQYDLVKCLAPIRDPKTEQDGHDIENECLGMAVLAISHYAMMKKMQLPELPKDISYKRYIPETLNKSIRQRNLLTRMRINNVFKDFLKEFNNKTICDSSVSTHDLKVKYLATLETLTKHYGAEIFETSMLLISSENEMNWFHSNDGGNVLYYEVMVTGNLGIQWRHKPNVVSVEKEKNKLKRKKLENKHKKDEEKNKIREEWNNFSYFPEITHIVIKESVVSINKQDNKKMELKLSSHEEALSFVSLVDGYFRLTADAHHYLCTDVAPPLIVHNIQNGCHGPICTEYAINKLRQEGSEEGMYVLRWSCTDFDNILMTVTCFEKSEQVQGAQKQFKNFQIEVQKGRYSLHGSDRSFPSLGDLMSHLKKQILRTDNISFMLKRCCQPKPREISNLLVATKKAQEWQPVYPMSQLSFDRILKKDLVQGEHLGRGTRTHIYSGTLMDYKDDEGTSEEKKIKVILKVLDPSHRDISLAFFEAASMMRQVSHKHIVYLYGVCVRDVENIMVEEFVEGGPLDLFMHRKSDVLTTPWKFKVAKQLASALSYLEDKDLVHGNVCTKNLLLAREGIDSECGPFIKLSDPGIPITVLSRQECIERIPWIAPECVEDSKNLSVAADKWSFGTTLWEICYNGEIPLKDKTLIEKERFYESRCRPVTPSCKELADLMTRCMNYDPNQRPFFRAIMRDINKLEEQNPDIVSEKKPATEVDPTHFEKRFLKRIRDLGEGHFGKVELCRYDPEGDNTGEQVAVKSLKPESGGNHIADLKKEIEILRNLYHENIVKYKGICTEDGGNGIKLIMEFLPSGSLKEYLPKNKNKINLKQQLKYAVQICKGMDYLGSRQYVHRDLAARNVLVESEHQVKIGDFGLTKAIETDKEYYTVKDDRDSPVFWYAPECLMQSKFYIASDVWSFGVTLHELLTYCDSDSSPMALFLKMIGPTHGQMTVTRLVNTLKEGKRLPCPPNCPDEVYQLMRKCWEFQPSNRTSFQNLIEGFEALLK

## CN1CCOCCOc2ccc(Nc3ncc(F)c(-c4ccc(C(=O)NCC#N)cc4)n3)cc2OCC1 [Example 44, N-(cyanomethyl)-4-(5-fluoro-2-((7-methyl-2,3,6,7,8,9-hexahydro-5H-benzo[b] [1,4,7]trioxa[10]azacyclododecan-12-yl)amino)pyrimidin-4-yl)benzamide]
JAK1
  inhibition at 0.01 µM: 25 to 39%
JAK1; at 100 nM
  inhibition at 0.1 µM: > 80%
JAK2
  inhibition at 0.01 µM: > 80%
JAK2; at 100 nM
  inhibition at 0.1 µM: > 80%
JAK3
  inhibition at 0.1 µM: 40 to 79%
TYK2
  inhibition at 0.01 µM: 40 to 79%
TYK2; at 100 nM
  inhibition at 0.1 µM: > 80%
CDK7
  inhibition at 0.1 µM: 40 to 79%
CDK9; read-out: inhibition rate CDK9
  inhibition at 0.01 µM: 40 to 79%
CDK9; at 100 nM, read-out: inhibition rate CDK9
  inhibition at 0.1 µM: > 80%
CDK9
  IC50: < 0.05 µM
LRRK2; at 100 nM, read-out: inhibition rate LRRK2
  inhibition at 0.1 µM: 40 to 79%
MV-4-11 cells
  IC50: < 0.1 µM

## CN1CCOc2ccc(Nc3ncc(C(F)(F)F)c(Nc4ccccc4P(C)(C)=O)n3)cc2OCC1 [Example 83, dimethyl(2-((2-((4-methyl-3,4,5,6-tetrahydro-2H-benzo[b][1,4,7]dioxazolin-9-yl)amino)-5-(trifluoromethyl)pyrimidin-4-yl)amino)phenyl)phosphine oxide]
JAK1
  inhibition at 0.01 µM: 25 to 39%
JAK2
  inhibition at 0.01 µM: > 80%
TYK2
  inhibition at 0.01 µM: 40 to 79%
LRRK2; at 10 nM, read-out: inhibition rate LRRK2
  inhibition at 0.01 µM: > 80%
LRRK2
  IC50: < 0.05 µM
wild-type LRRK2
  EC50: < 0.5 µM
LRRK2 (G2019S)
  EC50: < 0.5 µM

## COc1ccc(F)cc1-c1nc(Nc2ccc3c(c2)OCCN(C)CCOCCO3)ncc1F [Example 114, N-(5-fluoro-4-(5-fluoro-2-methoxyphenyl)pyrimidin-2-yl)-7-methyl-2,3,6,7,8,9-hexahydro-5H-benzo[b][1,4,7]trioxa[10]azacyclododecan-12-amine]
CDK9; read-out: inhibition rate CDK9
  inhibition at 0.01 µM: 40 to 79%
CDK9
  IC50: < 0.05 µM
MV-4-11 cells
  IC50: 0.1 to 1 µM

## CN1CCOCCOc2ccc(Nc3nc(O[C@H]4CC[C@@](C)(O)CC4)c4cc[nH]c4n3)cc2OCC1 [Example 6, 1-methyl-4-((2-((7-methyl-2,3,6,7,8,9-hexahydro-5H-benzo[b][1,4,7]trioxa[10]azacyclododecan-12-yl)amino)-7H-pyrrolo[2,3-d]pyrimidin-4-yl)oxy)cyclohexanol]
[1]; simulated gastric fluid, diluted hydrochloric acid solution A (pH-1.5), room temperature, 1 hour
  solubility at 1 h: > 3.07 mg/mL
[1]; ultrapure water (pH-6), room temperature overnight
  solubility: 0.368 mg/mL (≈ 740 µM)
LRRK2
  IC50: < 0.05 µM
wild-type LRRK2
  EC50: < 0.5 µM
LRRK2 (G2019S)
  EC50: < 0.5 µM
